For 44 molecules, koff and kon results are on record in BindingDB's records for patent US20230312550 (Astrazeneca, 2023).

This assay addresses T1, Prolyl endopeptidase FAP (Homo sapiens, UniProt Q12884).
T1 sequence (Q12884 whole entry): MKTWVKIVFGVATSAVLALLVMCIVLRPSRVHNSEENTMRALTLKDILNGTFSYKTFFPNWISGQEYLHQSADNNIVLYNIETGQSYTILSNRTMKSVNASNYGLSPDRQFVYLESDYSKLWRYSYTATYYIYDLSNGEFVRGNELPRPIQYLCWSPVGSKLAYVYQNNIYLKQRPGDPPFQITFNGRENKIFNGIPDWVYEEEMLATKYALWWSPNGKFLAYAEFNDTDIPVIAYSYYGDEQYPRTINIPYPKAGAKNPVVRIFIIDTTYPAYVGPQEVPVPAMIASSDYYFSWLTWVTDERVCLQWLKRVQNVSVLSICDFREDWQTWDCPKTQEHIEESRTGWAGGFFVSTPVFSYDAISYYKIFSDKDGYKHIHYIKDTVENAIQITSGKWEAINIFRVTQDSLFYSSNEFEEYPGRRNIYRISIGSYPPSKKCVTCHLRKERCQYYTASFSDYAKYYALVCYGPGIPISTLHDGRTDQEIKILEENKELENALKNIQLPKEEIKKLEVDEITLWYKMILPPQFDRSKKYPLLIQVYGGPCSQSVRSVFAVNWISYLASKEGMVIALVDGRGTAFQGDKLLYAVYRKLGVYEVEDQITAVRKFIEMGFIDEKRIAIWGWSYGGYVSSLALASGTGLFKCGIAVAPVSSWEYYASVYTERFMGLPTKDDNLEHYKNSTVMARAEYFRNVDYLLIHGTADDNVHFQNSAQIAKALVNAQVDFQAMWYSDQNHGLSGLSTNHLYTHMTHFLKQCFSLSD
Briefly: hFAP Binding Assay. To be noted: for kon: read-out: kon (M-1-s-1).

A word on the koff: it is the rate constant with which the complex falls apart. Higher therefore signals fast dissociation. By kon is commonly meant a measure of how fast the partners come together. In the case of `N#C[C@@H]1CSCN1C(=O)CNC(=O)c1ccnc2ccc(N3CC[C@@H](F)C3)cc12` [US20230312550, Example 52], the koff stood at 0.00019 s⁻¹ and the kon was 6.8e+06 M⁻¹ s⁻¹.

`CC1(O)CN(c2ccc3nccc(C(=O)NCC(=O)N4CSC[C@H]4C#N)c3c2)C1` [US20230312550, Example 165]: the koff was 6.3e-05 s⁻¹ and the kon turned out to be 1.2e+06 M⁻¹ s⁻¹.

Take `N#C[C@@H]1CSCN1C(=O)CNC(=O)c1ccnc2ccc(N3CC(F)(c4ccccc4)C3)cc12` [US20230312550, Example 182]: the koff came out at 4.2e-05 s⁻¹ and the kon stood at 250000 M⁻¹ s⁻¹.

As for `CO[C@@H]1CN(c2ccc3nccc(C(=O)NCC(=O)N4CSC[C@H]4C#N)c3c2)[C@H]1C` [US20230312550, Example 30], the koff was found to be 0.00022 s⁻¹ and the kon was determined as 5.2e+06 M⁻¹ s⁻¹.

With `CC1(C)OCCN(c2ccc3nccc(C(=O)NCC(=O)N4CSC[C@H]4C#N)c3c2)C1=O` [US20230312550, Example 16], the koff stood at 4.1e-05 s⁻¹ and the kon was 740000 M⁻¹ s⁻¹.

Take `CCC1(O)CN(c2ccc3nccc(C(=O)NCC(=O)N4CSC[C@H]4C#N)c3c2)C1` [US20230312550, Example 154]: the koff is 5.4e-05 s⁻¹ and the kon is 910000 M⁻¹ s⁻¹.

For `CC1(C)CN(c2ccc3nccc(C(=O)NCC(=O)N4CSC[C@H]4C#N)c3c2)CCO1` [US20230312550, Example 88], the koff worked out at 0.00034 s⁻¹ and the kon was 4.2e+06 M⁻¹ s⁻¹.

On to `CC1(C)CCCN1c1ccc2nccc(C(=O)NCC(=O)N3CSC[C@H]3C#N)c2c1` [US20230312550, Example 57], for which the koff was 0.00018 s⁻¹ and the kon was 8e+06 M⁻¹ s⁻¹.

On to `C[C@@H]1COC[C@H](C)N1c1cc2c(C(=O)NCC(=O)N3CSC[C@H]3C#N)ccnc2cc1Br` [US20230312550, Example 100], for which the koff was determined as 0.0022 s⁻¹ and the kon was 3e+06 M⁻¹ s⁻¹.

For the molecule `N#C[C@@H]1CSCN1C(=O)CNC(=O)c1ccnc2ccc(N3CC(CF)C3)cc12` [US20230312550, Example 113], the koff stood at 4.5e-05 s⁻¹ and the kon is 1.5e+06 M⁻¹ s⁻¹.

With `CCC1(O)CCN(c2ccc3nccc(C(=O)NCC(=O)N4CSC[C@H]4C#N)c3c2)CC1` [US20230312550, Example 189], the koff was 5.1e-05 s⁻¹ and the kon came to 2.6e+06 M⁻¹ s⁻¹.

As to `N#C[C@@H]1CSCN1C(=O)CNC(=O)c1ccnc2ccc(N3CC(CC(F)(F)F)C3)cc12` [US20230312550, Example 158], the koff came to 0.00029 s⁻¹ and the kon worked out at 3.1e+06 M⁻¹ s⁻¹.

As to `C[C@@H]1CCCN1c1ccc2nccc(C(=O)NCC(=O)N3CSC[C@H]3C#N)c2c1` [US20230312550, Example 211], the koff stood at 0.0002 s⁻¹ and the kon was found to be 5.9e+06 M⁻¹ s⁻¹.

Take `N#C[C@@H]1CSCN1C(=O)CNC(=O)c1ccnc2cc(Cl)c(N3CCOCC3)cc12` [US20230312550, Example 179]: the koff came to 0.00016 s⁻¹ and the kon was 3.2e+06 M⁻¹ s⁻¹.

Consider `N#C[C@@H]1CSCN1C(=O)CNC(=O)c1ccnc2ccc(N3CCC4(CC4)C3)cc12` [US20230312550, Example 49], for which the koff came to 0.00017 s⁻¹ and the kon amounted to 8.8e+06 M⁻¹ s⁻¹.

Consider `N#C[C@@H]1CSCN1C(=O)CNC(=O)c1ccnc2ccc(N3CCC[C@H]3C3CC3)cc12` [US20230312550, Example 200], for which the koff was 0.00023 s⁻¹ and the kon is 2.5e+06 M⁻¹ s⁻¹.

For `N#C[C@@H]1CSCN1C(=O)CNC(=O)c1ccnc2ccc(-c3ccnc(F)c3)cc12` [US20230312550, Example 124], the koff is 0.00028 s⁻¹ and the kon is 3e+06 M⁻¹ s⁻¹.

Turning to `CS(=O)(=O)C[C@@H]1CN(c2ccc3nccc(C(=O)NCC(=O)N4CSC[C@H]4C#N)c3c2)CCO1` [US20230312550, Example 94], the koff came out at 9.9e-05 s⁻¹ and the kon amounted to 1.9e+06 M⁻¹ s⁻¹.

`N#C[C@@H]1CSCN1C(=O)CNC(=O)c1ccnc2ccc(N3CCOC(F)(F)C3)cc12` [US20230312550, Example 4]: the koff is 9.4e-05 s⁻¹ and the kon amounted to 1.2e+06 M⁻¹ s⁻¹.

Consider `N#C[C@@H]1CSCN1C(=O)CNC(=O)c1ccnc2ccc(N3CC[C@H](F)C3)cc12` [US20230312550, Example 51], for which the koff came to 0.00011 s⁻¹ and the kon turned out to be 5.6e+06 M⁻¹ s⁻¹.

As for `CC(F)(F)C1CN(c2ccc3nccc(C(=O)NCC(=O)N4CSC[C@H]4C#N)c3c2)C1` [US20230312550, Example 147], the koff was found to be 0.00012 s⁻¹ and the association rate constant (kon) amounted to 2.8e+06 M⁻¹ s⁻¹.

Take `N#C[C@@H]1CSCN1C(=O)CNC(=O)c1ccnc2ccc(N3C4CCCC3COC4)cc12` [US20230312550, Example 86]: the koff is 5.8e-05 s⁻¹ and the kon stood at 730000 M⁻¹ s⁻¹.

In the case of `CC1(C)CCCN(c2ccc3nccc(C(=O)NCC(=O)N4CSC[C@H]4C#N)c3c2)C1=O` [US20230312550, Example 15], the koff came to 4.6e-05 s⁻¹ and the kon worked out at 490000 M⁻¹ s⁻¹.

Regarding `CN1CCC(F)(c2ccc3nccc(C(=O)NCC(=O)N4CSC[C@H]4C#N)c3c2)CC1` [US20230312550, Example 195], the koff is 6.1e-05 s⁻¹ and the kon was found to be 190000 M⁻¹ s⁻¹.

Turning to `N#C[C@@H]1CSCN1C(=O)CNC(=O)c1ccnc2ccc(N3CCOCC3)c(Cl)c12` [US20230312550, Example 101], the koff was 2.5e-05 s⁻¹ and the kon was found to be 740000 M⁻¹ s⁻¹.

Regarding `N#C[C@@H]1CSCN1C(=O)CNC(=O)c1ccnc2ccc(N3CCCCC3)cc12` [US20230312550, Example 32], the koff stood at 2.9e-05 s⁻¹ and the kon came out at 1.3e+06 M⁻¹ s⁻¹.

For `CC1(CC(F)(F)F)CN(c2ccc3nccc(C(=O)NCC(=O)N4CSC[C@H]4C#N)c3c2)C1` [US20230312550, Example 131], the koff was found to be 0.00014 s⁻¹ and the kon is 1.8e+06 M⁻¹ s⁻¹.

As to `N#C[C@@H]1CSCN1C(=O)CNC(=O)c1ccnc2ccc(N3CCO[C@H](C(F)(F)F)C3)cc12` [US20230312550, Example 74], the koff turned out to be 0.00016 s⁻¹ and the kon came out at 1.1e+06 M⁻¹ s⁻¹.

With `CC1CN(c2ccc3nccc(C(=O)NCC(=O)N4CSC[C@H]4C#N)c3c2)C1` [US20230312550, Example 25], the koff is 0.00011 s⁻¹ and the kon is 1.4e+06 M⁻¹ s⁻¹.

Turning to `CC(F)(F)CC1CN(c2ccc3nccc(C(=O)NCC(=O)N4CSC[C@H]4C#N)c3c2)C1` [US20230312550, Example 140], the koff stood at 0.00016 s⁻¹ and the kon stood at 2.6e+06 M⁻¹ s⁻¹.

In the case of `N#C[C@@H]1CSCN1C(=O)CNC(=O)c1ccnc2ccc(N3CC(F)(CF)C3)cc12` [US20230312550, Example 157], the koff worked out at 0.00012 s⁻¹ and the kon was 1.9e+06 M⁻¹ s⁻¹.

For `N#C[C@@H]1CSCN1C(=O)CNC(=O)c1ccnc2ccc(N3CC4(COC4)C3)cc12` [US20230312550, Example 166], the koff is 4.9e-05 s⁻¹ and the association rate constant (kon) worked out at 2.2e+06 M⁻¹ s⁻¹.

Turning to `COC1CN(c2ccc3nccc(C(=O)NCC(=O)N4CSC[C@H]4C#N)c3c2)C1` [US20230312550, Example 66], the koff is 0.00022 s⁻¹ and the kon was 2.6e+07 M⁻¹ s⁻¹.

Turning to `Cc1nc(C)c(-c2ccc3nccc(C(=O)NCC(=O)N4CSC[C@H]4C#N)c3c2)o1` [US20230312550, Example 215], the koff turned out to be 0.00017 s⁻¹ and the kon is 1.8e+06 M⁻¹ s⁻¹.

Regarding `C[C@]1(O)CCN(c2ccc3nccc(C(=O)NCC(=O)N4CSC[C@H]4C#N)c3c2)C1` [US20230312550, Example 168], the koff is 4.8e-05 s⁻¹ and the kon was found to be 1.6e+06 M⁻¹ s⁻¹.

For `N#C[C@@H]1CSCN1C(=O)CNC(=O)c1ccnc2ccc(N3CCCC(F)(F)C3)cc12` [US20230312550, Example 36], the koff was determined as 9e-05 s⁻¹ and the kon was determined as 3e+06 M⁻¹ s⁻¹.

On to `COC[C@@H]1CN(c2ccc3nccc(C(=O)NCC(=O)N4CSC[C@H]4C#N)c3c2)CCO1` [US20230312550, Example 93], for which the koff was determined as 8e-05 s⁻¹ and the kon worked out at 1.8e+06 M⁻¹ s⁻¹.

In the case of `C[C@H]1N(c2ccc3nccc(C(=O)NCC(=O)N4CSC[C@H]4C#N)c3c2)CC1(F)F` [US20230312550, Example 159], the koff was determined as 9.2e-05 s⁻¹ and the kon was determined as 2.1e+06 M⁻¹ s⁻¹.

Regarding `CC1(C)CCN1c1ccc2nccc(C(=O)NCC(=O)N3CSC[C@H]3C#N)c2c1` [US20230312550, Example 20], the koff is 0.00012 s⁻¹ and the kon came out at 4.2e+06 M⁻¹ s⁻¹.

On to `N#C[C@@H]1CSCN1C(=O)CNC(=O)c1ccnc2ccc(N3CC4CCC(C3)O4)cc12` [US20230312550, Example 79], for which the koff stood at 0.00012 s⁻¹ and the kon came out at 1.6e+07 M⁻¹ s⁻¹.

In the case of `CC1(C)Cc2c(-c3ccc4nccc(C(=O)NCC(=O)N5CSC[C@H]5C#N)c4c3)cnn2C1` [US20230312550, Example 123], the koff was 0.00042 s⁻¹ and the kon was 3e+06 M⁻¹ s⁻¹.

As to `CC[C@H]1COCCN1c1ccc2nccc(C(=O)NCC(=O)N3CSC[C@H]3C#N)c2c1` [US20230312550, Example 106], the koff was 0.00014 s⁻¹ and the kon stood at 1.8e+06 M⁻¹ s⁻¹.

With `CCC1(C)CN(c2ccc3nccc(C(=O)NCC(=O)N4CSC[C@H]4C#N)c3c2)C1` [US20230312550, Example 137], the koff stood at 9.8e-05 s⁻¹ and the kon is 9.5e+06 M⁻¹ s⁻¹.

`N#C[C@@H]1CSCN1C(=O)CNC(=O)c1ccnc2ccc(N3CC(N4CCOCC4)C3)cc12` [US20230312550, Example 122]: the koff was 4.3e-05 s⁻¹ and the kon was 1.3e+06 M⁻¹ s⁻¹.
